US20130158075A1, “HETEROCYCLIC COMPOUNDS AS DGAT1 INHIBITORS” (PIRAMAL ENTERPRISES LIMITED, priority 2010, published 2013)

Target: T1, hDGAT1 (Homo sapiens, UniProt O75907)
T1 construct: made in house; host or cells: Sf9 insect cells (baculovirus); microsomal fraction
T1 sequence (O75907 1-488): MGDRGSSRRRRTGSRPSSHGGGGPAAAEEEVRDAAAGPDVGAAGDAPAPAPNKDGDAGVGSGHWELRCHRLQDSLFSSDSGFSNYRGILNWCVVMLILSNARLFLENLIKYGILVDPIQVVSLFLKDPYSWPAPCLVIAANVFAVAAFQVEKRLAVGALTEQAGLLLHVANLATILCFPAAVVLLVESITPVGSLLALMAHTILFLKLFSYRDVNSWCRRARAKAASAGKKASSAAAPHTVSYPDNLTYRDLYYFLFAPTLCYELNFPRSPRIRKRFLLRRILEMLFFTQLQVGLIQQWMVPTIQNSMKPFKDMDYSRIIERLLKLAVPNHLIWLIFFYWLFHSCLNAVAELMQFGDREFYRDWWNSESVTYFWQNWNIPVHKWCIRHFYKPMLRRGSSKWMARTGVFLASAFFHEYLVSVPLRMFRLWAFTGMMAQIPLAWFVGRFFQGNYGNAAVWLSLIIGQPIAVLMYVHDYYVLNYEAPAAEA
Assay: In-vitro DGAT1 assay with hDGAT1 microsomes from Sf9 cells (14C oleoyl CoA, scintillation counting)
Assay type: biochemical
Details: for inhibition at 1 µM: read-out: Percentage inhibition of hDGAT1; for Percentage inhibition of hDGAT1: at 1 μM
Method in brief: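 Radiolabelled triglyceride formation was measured: heptane extracts were scintillation-counted after a 10-min, 37 °C reaction stopped with alkaline ethanol. Enzyme was human DGAT1 in baculovirus-infected Sf9 microsomal membranes; substrates were 14C oleoyl-CoA plus dioleoylglycerol. Runs were duplicated, and inhibition (%) was related to nM compound concentration.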

SMILES | inhibition at 1 µM [%] | Percentage inhibition of hDGAT1
O=C(O)CC1CCC(c2ncc(-c3ccc(NC(=O)c4ccc(Cl)cc4Cl)cc3)s2)CC1 (centres unmarked) [Example 364, 2-(4-(5-(4-(2,4-Dichlorobenzamido)phenyl)thiazol-2-yl)cyclohexyl)acetic acid] | > 50 | –
O=C(O)CC1CCC(c2ncc(-c3ccc(NC(=O)c4c(F)cccc4C(F)(F)F)cc3)s2)CC1 (centres unmarked) [Example 366, 2-(4-(5-(4-(2-Fluoro-6-(trifluoromethyl)benzamido)phenyl)thiazol-2-yl)cyclohexyl)acetic acid] | > 50 | –
O=C(O)CC1CCC(c2ncc(-c3ccc(NC(=O)Nc4cc(F)c(F)c(F)c4)cc3)s2)CC1 (centres unmarked) [Example 368, 2-(4-(5-(4-(3-(3,4,5-Trifluorophenyl)ureido)phenyl)thiazol-2-yl)cyclohexyl)acetic acid] | > 50 | –
O=C(O)CC1CCC(c2ncc(-c3ccc(NC(=O)c4nc(-c5ccccc5)oc4C(F)(F)F)cc3)s2)CC1 (centres unmarked) [Example 370, 2-(4-(5-(4-(2-Phenyl-5-(trifluoromethyl)oxazole-4-carboxamido)phenyl)thiazol-2-VI)cyclohexyl)acetic acid] | – | ++ (>50 % Inhibition)
Cc1oc(-c2ccccc2)nc1C(=O)Nc1ccc(-c2cnc(C3CCC(CC(=O)O)CC3)s2)cc1 (centres unmarked) [Example 372, 2-(4-(5-(4-(5-Methyl-2-phenyloxazole-4-carboxamido)phenyl)thiazol-2-yl)cyclohexyl)acetic acid] | > 50 | –
O=C(O)CC1CCC(c2ncc(-c3ccc(NC(=S)Nc4ccccc4F)cc3)s2)CC1 (centres unmarked) [Example 374, 2-(4-(5-(4-(3-(2-Fluorophenyl)thioureido)phenyl)thiazol-2-yl)cyclohexyl)acetic acid] | > 50 | –
Cc1nnc(CC2CCC(c3ncc(-c4ccc(NC(=O)Nc5ccc(F)cc5F)cc4)s3)CC2)o1 (centres unmarked) [Example 379, 1-(2,4-Difluorophenyl)-3-(4-(2-(4-((5-methyl-1,3,4-oxadiazol-2-yl)methyl)cyclohexyl)thiazol-5-yl)phenyl)urea] | > 50 | –
Cc1nnc(CC2CCC(c3ncc(-c4ccc(NC(=O)Nc5ccccc5Cl)cc4)s3)CC2)o1 (centres unmarked) [Example 380, 1-(2-Chlorophenyl)-3-(4-(2-(4-((5-methyl-1,3,4-oxadiazol-2-yl)methyl)cyclohexyl)thiazol-5-yl)phenyl)urea] | 20 to 50 | –
Cc1nnc(CC2CCC(c3ncc(-c4ccc(NC(=O)Nc5cc(F)cc(F)c5)cc4)s3)CC2)o1 (centres unmarked) [Example 381, 1-(3,5-Difluorophenyl)-3-(4-(2-(4-((5-methyl-1,3,4-oxadiazol-2-yl)methyl)cyclohexyl)thiazol-5-yl)phenyl)urea] | > 50 | –
Cc1nnc(CC2CCC(c3ncc(-c4ccc(NC(=O)Nc5cc(F)c(F)cc5F)cc4)s3)CC2)o1 (centres unmarked) [Example 382, 1-(4-(2-(4-((5-Methyl-1,3,4-oxadiazol-2-yl)methyl)cyclohexyl)thiazol-5-yl)phenyl)-3-(2,4,5-trifluorophenyl)urea] | > 50 | –
Cc1nnc(CC2CCC(c3ncc(-c4ccc(NC(=O)Nc5c(F)cc(F)cc5F)cc4)s3)CC2)o1 (centres unmarked) [Example 383, 1-(4-(2-(4-((5-Methyl-1,3,4-oxadiazol-2-yl)methyl)cyclohexyl)thiazol-5-yl)phenyl)-3-(2,4,6-trifluorophenyl)urea] | > 50 | –
Cc1nnc(CC2CCC(c3ncc(-c4ccc(NC(=O)c5c(F)cccc5F)cc4)s3)CC2)o1 (centres unmarked) [Example 385, 2,6-Difluoro-N-(4-(2-(4-((5-methyl-1,3,4-oxadiazol-2-yl)methyl)cyclohexyl)thiazol-5-yl)phenyl)benzamide] | 20 to 50 | –
Cc1noc(CC2CCC(c3ncc(-c4ccc(NC(=O)Nc5ccccc5Cl)cc4)s3)CC2)n1 (centres unmarked) [Example 390, 1-(2-Chlorophenyl)-3-(4-(2-(4-((3-methyl-1,2,4-oxadiazol-5-yl)methyl)cyclohexyl)thiazol-5-yl)phenyl)urea] | > 50 | –
Cc1noc(CC2CCC(c3ncc(-c4ccc(NC(=O)Nc5ccccc5F)cc4)s3)CC2)n1 (centres unmarked) [Example 391, 1-(2-Fluorophenyl)-3-(4-(2-(4-((3-methyl-1,2,4-oxadiazol-5-yl)methyl)cyclohexyl)thiazol-5-yl)phenyl)urea] | > 50 | –
Cc1noc(CC2CCC(c3ncc(-c4ccc(NC(=O)Nc5cc(F)cc(F)c5)cc4)s3)CC2)n1 (centres unmarked) [Example 392, 1-(3,5-Difluorophenyl)-3-(4-(2-(4-((3-methyl-1,2,4-oxadiazol-5-yl)methyl)cyclohexyl)thiazol-5-yl)phenyl)urea] | > 50 | –
Cc1noc(CC2CCC(c3ncc(-c4ccc(NC(=O)Nc5cc(F)c(F)cc5F)cc4)s3)CC2)n1 (centres unmarked) [Example 393, 1-(4-(2-(4-((3-Methyl-1,2,4-oxadiazol-5-yl)methyl)cyclohexyl)thiazol-5-yl)phenyl)-3-(2,4,5-trifluorophenyl)urea] | > 50 | –

SMILES | inhibition at 1 µM [%] | Percentage inhibition of hDGAT1
Cc1noc(CC2CCC(c3ncc(-c4ccc(NC(=O)Nc5ccc(F)cc5F)cc4)s3)CC2)n1 (centres unmarked) [Example 394, 1-(2,4-Difluorophenyl)-3-(4-(2-(4-((3-methyl-1,2,4-oxadiazol-5-yl)methyl)cyclohexyl)thiazol-5-yl)phenyl)urea] | > 50 | –
Cc1noc(CC2CCC(c3ncc(-c4ccc(NC(=O)c5c(F)cccc5F)cc4)s3)CC2)n1 (centres unmarked) [Example 396, 2,6-Difluoro-N-(4-(2-(4-((3-methyl-1,2,4-oxadiazol-5-yl)methyl)cyclohexyl)thiazol-5-yl)phenyl)benzamide] | 20 to 50 | –
CC(=O)NC(=O)CC1CCC(c2ncc(-c3ccc(NC(=O)Nc4ccccc4Cl)cc3)s2)CC1 (centres unmarked) [Example 400, N-Acetyl-2-(4-(5-(4-(3-(2-chlorophenyl)ureido)phenyl)thiazol-2-yl)cyclohexyl)acetamide] | > 50 | –
CC(=O)NC(=O)CC1CCC(c2ncc(-c3ccc(NC(=O)Nc4ccc(F)cc4F)cc3)s2)CC1 (centres unmarked) [Example 401, N-Acetyl-2-(4-(5-(4-(3-(2,4-difluorophenyl)ureido)phenyl)thiazol-2-yl)cyclohexyl)acetamide] | > 50 | –
CC(=O)NC(=O)CC1CCC(c2ncc(-c3ccc(NC(=O)Nc4cc(F)c(F)cc4F)cc3)s2)CC1 (centres unmarked) [Example 402, N-Acetyl-2-(4-(5-(4-(3-(2,4,5-trifluorophenyl)ureido)phenyl)thiazol-2-yl)cyclohexyl)acetamide] | > 50 | –
CC(=O)NC(=O)CC1CCC(c2ncc(-c3ccc(NC(=O)c4c(F)cccc4F)cc3)s2)CC1 (centres unmarked) [Example 403, N-(4-(2-(4-(2-Acetamido-2-oxoethyl)cyclohexyl)thiazol-5-yl)phenyl)-2,6-difluoro benzamide] | – | + (20-50% Inhibition)
CC(C)(O)C1CCC(c2ncc(-c3ccc(NC(=O)Nc4ccccc4Cl)cc3)s2)CC1 (centres unmarked) [Example 404, 1-(2-Chlorophenyl)-3-(4-(2-(4-(2-hydroxypropan-2-yl)cyclohexyl)thiazol-5-yl)phenyl)urea] | > 50 | –
CC(C)(O)C1CCC(c2ncc(-c3ccc(NC(=O)Nc4cc(F)cc(F)c4)cc3)s2)CC1 (centres unmarked) [Example 405, 1-(3,5-Difluorophenyl)-3-(4-(2-(4-(2-hydroxypropan-2-yl)cyclohexyl)thiazol-5-yl)phenyl)urea] | > 50 | –
CC(C)(O)C1CCC(c2ncc(-c3ccc(NC(=O)Nc4ccc(F)cc4F)cc3)s2)CC1 (centres unmarked) [Example 406, 1-(2,4-Difluorophenyl)-3-(4-(2-(4-(2-hydroxypropan-2-yl)cyclohexyl)thiazol-5-yl)phenyl)urea] | > 50 | –
CC(C)(O)CC1CCC(c2ncc(-c3ccc(NC(=O)Nc4ccc(F)cc4F)cc3)s2)CC1 (centres unmarked) [Example 407, 1-(2,4-Difluorophenyl)-3-(4-(2-(4-(2-hydroxy-2-methylpropyl)cyclohexyl)thiazol-5-yl)phenyl)urea] | > 50 | –
CC(C)(O)CC1CCC(c2ncc(-c3ccc(NC(=O)Nc4cc(F)cc(F)c4)cc3)s2)CC1 (centres unmarked) [Example 408, 1-(3,5-Difluorophenyl)-3-(4-(2-(4-(2-hydroxy-2-methylpropyl)cyclohexyl)thiazol-5-yl)phenyl)urea] | > 50 | –
CC(C)(O)CC1CCC(c2ncc(-c3ccc(NC(=O)Nc4cc(F)c(F)cc4F)cc3)s2)CC1 (centres unmarked) [Example 409] | – | ++ (>50 % Inhibition)
NNC(=O)CC1CCC(c2ncc(-c3ccc(NC(=O)Nc4cc(F)cc(F)c4)cc3)s2)CC1 (centres unmarked) [Example 410, 1-(3,5-Difluorophenyl)-3-(4-(2-(4-(2-hydrazinyl-2-oxoethyl)cyclohexyl)thiazol-5-yl)phenyl)urea] | > 50 | –
Cc1nnc(CC2CCC(c3ncc(-c4ccc(N)cc4)s3)CC2)s1 (centres unmarked) [Example 413, 4-(2-(4-((5-Methyl-1,3,4-thiadiazol-2-yl)methyl)cyclohexyl)thiazol-5-yl)aniline] | > 50 | –
Cc1nnc(CC2CCC(c3ncc(-c4ccc(NC(=O)Nc5cc(F)c(F)cc5F)cc4)s3)CC2)s1 (centres unmarked) [Example 414, 1-(4-(2-(4-((5-Methyl-1,3,4-thiadiazol-2-yl)methyl)cyclohexyl)thiazol-5-yl)phenyl)-3-(2,4,5-trifluorophenyl)urea] | > 50 | –
O=C(O)CN1CCC(c2ncc(-c3ccc(NC(=O)Nc4ccccc4Cl)cc3)s2)CC1 [Example 429, 2-(4-(5-(4-(3-(2-Chlorophenyl)ureido)phenyl)thiazol-2-yl)piperidin-1-yl)acetic acid] | > 50 | –
